Source: publication PMC9794608 (Frontiers in Veterinary Science, 2022)

Legend:
laboratory beagle dogs = experiment: Repeat dose tolerability: clinical observations, hematology, serum chemistry, coagulation, urinalysis; type: in vivo
Description: (§1) Laboratory Beagle dogs (Charles River Labs, Mattawan, MI) served as surrogates in testing compounds proposed for application in canine clinical cancer care. The animals were at least six months old and weighed 6.4–8.8 kg at the initiation of study. They had routine veterinary care and had not been used in any previous studies. The study was conducted in AAALAC-accredited animal facilities [Charles River Laboratories, Inc., Mattawan, MI; NIH Office of Laboratory Animal Welfare Assurance approval (https://olaw.nih.gov/assured/app/index.html)], under review, monitoring, and approval of the facility's Institutional Animal Care and Use Committee according to U.S. Public Health Service national guidelines and regulations for the care and use of laboratory animals. The study was not designed to incorporate Good Laboratory Practices (GLP) regulatory criteria. Animals on study were monitored daily or more frequently and body weights were recorded, while periodic specimens were obtained for laboratory analyses. Clinical pathology analyses were included for hematology, serum chemistry, coagulation, urinalysis, and chemical bioanalysis was accomplished for pharmacokinetics (PK) (Table 1, repeat dose study) (Charles River Laboratories, Mattawan, MI).
(§2) Six male and six female beagle dogs were enrolled in a parallel, three-arm, fixed, repeat oral-dose study. […] All dogs were dosed on study day 1 to obtain single dose PK samples, and then dosed serially days 4–20. Dogs were fasted overnight prior to dosing and fed ad libitum 2 h (hrs) following dose administration.
On days 10 and 15, a 2-h post-dose sample was collected. […] Treatment schedule and clinical pathology specimen sampling intervals are outlined in Table 1. […]
Sampling for hematology, serum chemistry, coagulation and urinalysis was conducted to facilitate monitoring treatment effects over various time points, and values obtained were compared to pre-treatment measurements for each subject (Table 1).

[1] = design: method as in PMID 32943547; conditions: combination with sapanisertib, p <0.001; cited from earlier work
[2] = cited from earlier work
cytochrome P450 CYP3A4 = conditions: cited from earlier work
[3] = Plasma pharmacokinetics after single and repeat oral dose, LC-MS/MS, non-compartmental analysis; type: in vivo, Beagle dogs; conditions: for Tmax: TMAX (trametinib in plasma), median (range)
Description: as §1
as §2, with “study. […] In Group 2, two male (23001, 23002) and two female (23501, 23502) dogs were given sapanisertib alone (0.1 mg/kg) every other day (p.o., QOD).” for “study.”
Plasma samples for PK were collected at pre-dose (-7 days), then beginning day 1 following the initial dose of each study group at 1, 2, 4, 8, 24, 48, and 72 h. On day 6, plasma samples were collected pre-dose, then 1, 2, 4, 8, and 24 h post-dose. On days 10 and 15, a 2-h post-dose sample was collected. On day 20, plasma samples were drawn at pre-dose and 1, 2, 4, 8, 24, 48, and 72 h post-dose. Treatment schedule and clinical pathology specimen sampling intervals are outlined in Table 1.
(§3) Each 50 μL aliquot of known concentration standards, quality control sample, or study sample was mixed with 200 μL of working internal standard solution (10 ng/mL in acetonitrile). The samples were vortexed and centrifuged. A 150 μL aliquot of the resulting supernatant was transferred to a clean 96-well plate, evaporated, and reconstituted with 100 μL of water/acetonitrile (40/60, v/v). An aliquot was injected onto an LC-MS/MS XBridge BEH C18 liquid chromatography system (Waters Associates, Framingham, MA) having 50 x 2.1 mm (2.5 μm particle size) column with an isocratic flow consisting of water/formic acid (100/0.1, v/v) and acetonitrile/formic acid (100/0.1, v/v) at a flow rate of 0.3000 mL/min for analysis. The analyte and internal standard were detected using an API 6500+ triple quadrupole LC-MS/MS system (AB Sciex, LLC, Framingham, MA) equipped with an ESI (TurboIonSpray®) ionization source operated in the positive ion mode.
A non-compartmental approach to PK analysis was employed using Phoenix WinNonlin v8.3 (Certara Corp, Cary, NC) that was validated per FDA 21CFR Part 11 regulations. The maximum plasma concentration (CMAX) and the time of maximum plasma concentration (TMAX) were recorded as observed values. […] AUCINF (the AUC from time zero to infinity) was calculated by extrapolation by dividing CLAST (the last measurable drug concentration) by the rate constant of the terminal phase, λZ. This constant was determined from the slope of the terminal phase of the concentration-time curve using uniformly-weighted least-squares as the estimation procedure and acceptance criteria of (i) adjusted r^2 > 0.8, (ii) includes > 3 time points in the terminal phase occurring after the TMAX. […]

[4] = Pilot single oral dose plasma trametinib concentrations (initial formulation); type: in vivo; conditions: fasted dogs
Description: as §3
These analytical findings, even under animal fasting conditions, were independently verified at the NCI Clinical Pharmacology Program. […] Consequently, trametinib was reformulated for this study by […] with equimolar dimethyl sulfoxide (DMSO) (Wedgewood Pharmacy, Swedesboro, NJ), consistent with the human formulation ([…]®, Novartis), and used for all subsequent evaluations. […]

[5] = ref MEKINIST Prescribing Information

| CMAX or AUC, male versus female dogs ([3]; Mann-Whitney, p > 0.05) | Cmax ([3]; both, beagle, dog, plasma, po, […], CMAX (trametinib in plasma), First dose (Day 1), trametinib […] p.o., alone or with sapanisertib 0.1 mg/kg (see label), arithmetic mean (%CV), n = 4) [ng/mL] | half-life ([3]; both, beagle, dog, plasma, po, […], T1/2 (trametinib in plasma), Steady-state (Day 20), trametinib […] p.o. q.d., mean (%CV), one subject of the trametinib-alone group excluded) [h] | Tmax ([3]; both, beagle, dog, plasma, po, […], First dose (Day 1), trametinib […] p.o., n = 4) [h] | Tmax ([3]; both, beagle, dog, plasma, po, […], Steady-state (Day 20), trametinib […] p.o. q.d., n = 4) [h] | Plasma trametinib concentration after single oral dose ([4]; 0.06 or 0.03 mg/kg, inconsistent, frequently below assay detection limit, for each dose one of two dogs below detection) [ng/mL] | Time to detection of trametinib in plasma post dose ([4]; single oral dose 0.06 or 0.03 mg/kg) [h] | Compound | Dogs with minimal to marked increases in urine protein concentration (laboratory beagle dogs; Day 25, greater than pre-study values, 4 dogs per group) | Urine protein concentration, highest value (up to) (laboratory beagle dogs; Day 25, semi-quantitatively by urine dipstick) | Globulin concentration, times pre-study (up to) (laboratory beagle dogs; Days 7, 20, and/or 25) | Serum phosphorus concentrations, times pre-study (as low as) (laboratory beagle dogs; Days 7 and 20, both sexes in all groups) [x] | Individual animal fibrinogen concentration, times pretreatment (up to) (laboratory beagle dogs; various time points, most pronounced in Group 3) | Trametinib AUC in mice during combination treatment [1] | Trametinib accumulation upon repeat daily dosing in humans [2] | Clearance of trametinib in humans [2, 5] [mL/min/kg] | Distribution volume of trametinib in humans [2, 5] [L/kg] | Induction of cytochrome P450 CYP3A4 (cytochrome P450 CYP3A4) |
| --- | --- | --- | --- | --- | --- | --- | --- | --- | --- | --- | --- | --- | --- | --- | --- | --- | --- |
| absence of significant differences | 0.64 | 58.8 | 1.5 | 2 | – | – | CC(=O)Nc1cccc(-n2c(=O)n(C3CC3)c(=O)c3c(Nc4ccc(I)cc4F)n(C)c(=O)c(C)c32)c1 [Trametinib, trametinib dimethyl sulfoxide] | one male dog | ≥ 1,000 mg/dL | up to 1.45 x | ≥ 0.74 | up to 2.61 x | significantly increased | up to six-fold | 1.2 | 3.1 | known inducer |
| – | – | – | – | – | < 0.1 | ≥ 24 | CC(=O)Nc1cccc(-n2c(=O)n(C3CC3)c(=O)c3c(Nc4ccc(I)cc4F)n(C)c(=O)c(C)c32)c1 [trametinib, as initially formulated, trametinib] | – | – | – | – | – | – | – | – | – | – |
